Test results from patent publication US11702404B2, “GLP-1R modulating compounds” (priority 2019, dated 2023).

Tests used:
[1] = Microsomal stability, human liver microsomes (predicted hepatic clearance); conditions: predicted from in vitro microsomal stability data
GLP-1R = GLP-1R (Homo sapiens, UniProt P43220); experiment: GLP-1R activation: cAMP increase in CHO cells stably expressing GLP-1R; assay type: cell-based; conditions: cAMP increase, CHO cells stably expressing GLP-1R, 10 point dose response, 30 minutes incubation; read-out: EC50
Sequence of GLP-1R (P43220 24-463): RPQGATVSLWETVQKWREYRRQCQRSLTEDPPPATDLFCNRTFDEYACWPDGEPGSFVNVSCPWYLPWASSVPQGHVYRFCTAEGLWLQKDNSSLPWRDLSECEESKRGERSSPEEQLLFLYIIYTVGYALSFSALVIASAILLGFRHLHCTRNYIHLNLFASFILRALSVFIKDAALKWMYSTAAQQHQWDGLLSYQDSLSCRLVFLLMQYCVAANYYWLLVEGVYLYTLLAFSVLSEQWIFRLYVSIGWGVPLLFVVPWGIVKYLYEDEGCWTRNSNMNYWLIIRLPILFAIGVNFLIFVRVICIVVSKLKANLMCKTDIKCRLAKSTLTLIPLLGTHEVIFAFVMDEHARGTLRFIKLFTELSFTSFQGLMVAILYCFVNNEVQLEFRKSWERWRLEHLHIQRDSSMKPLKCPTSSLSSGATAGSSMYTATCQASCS

| SMILES | Predicted Hepatic Clearance (Pred. Cl.) [1] [mL/min/kg] | EC50 (GLP-1R) [nM] |
| --- | --- | --- |
| COCCn1c(Cc2cc(F)c(-c3nc(OCc4ccc(C#N)cc4F)ccc3F)cc2F)nc2ccc(C(=O)O)cc21 [Example 202, 2-(4-(6-((4-cyano-2-fluorobenzyl)oxy)-3-fluoropyridin-2-yl)-2,5-difluorobenzyl)-1-(2-methoxyethyl)-1H-benzo[d]imidazole-carboxylic acid] | 5.25 | 3.34 |
| N#Cc1ccc(COc2cccc(-c3ccc(Cc4nc5ccc(C(=O)O)cc5n4C4COC4)c(F)c3)n2)c(F)c1 [Example 203, 2-(4-(6-((4-cyano-2-fluorobenzyl)oxy)pyridin-2-yl)-2-fluorobenzyl)-1-(oxetan-3-yl)-1H-benzo[d]imidazole-6-carboxylic acid] | 4.83 | 420 |
| N#Cc1ccc(COc2cccc(-c3ccc(Cc4nc5ccc(C(=O)O)cc5n4[C@H]4CCOC4)c(F)c3)n2)c(F)c1 [Example 204, (S)-2-(4-(6-((4-cyano-2-fluorobenzyl)oxy)pyridin-2-yl)-2-fluorobenzyl)-1-(tetrahydrofuran-3-yl)-1H-benzo[d]imidazole-6-carboxylic acid] | 5.33 | 7.37 |
| COCCn1c(Cc2ccc(-c3cccc(OCc4ccc(C#N)cc4F)n3)cc2F)nc2cc(F)c(C(=O)O)cc21 [Example 207, 2-(4-(6-((4-cyano-2-fluorobenzyl)oxy)pyridin-2-yl)-2-fluorobenzyl)-5-fluoro-1-(2-methoxyethyl)-1H-benzo[d]imidazole-6-carboxylic acid] | 6 | 35.2 |
| N#Cc1ccc(COc2cccc(-c3ccc(Cc4nc5ccc(C(=O)O)cc5n4C4(CF)CC4)cc3F)n2)c(F)c1 [Example 209, 2-(4-(6-((4-cyano-2-fluorobenzyl)oxy)pyridin-2-yl)-3-fluorobenzyl)-1-(1-(fluoromethyl)cyclopropyl)-1H-benzo[d]imidazole-6-carboxylic acid] | 8.5 | 48.8 |
| COCCn1c(Cc2ccc(-c3cccc(OCc4ccc(C#N)cc4F)n3)cc2F)nc2ccc(C3(C(=O)O)CC3)cc21 [Example 210, 1-(2-(4-(6-((4-cyano-2-fluorobenzyl)oxy)pyridin-2-yl)-2-fluorobenzyl)-1-(2-methoxyethyl)-1H-benzo[d]imidazol-6-yl)cyclopropane-1-carboxylic acid] | 4.42 | ≥ 1000 |

Further molecules by falling EC50 (GLP-1R), results first:

| Predicted Hepatic Clearance (Pred. Cl.) [1] [mL/min/kg] | EC50 (GLP-1R) [nM] | SMILES |
| --- | --- | --- |
| 3 | 4420 | COCCn1c(Cc2ccc(-c3cccc(OCc4ccc(C#N)cc4F)n3)cc2F)nc2cccc(C(=O)O)c21 [Example 201, 2-(4-(6-((4-cyano-2-fluorobenzyl)oxy)pyridin-2-yl)-2-fluorobenzyl)-1-(2-methoxyethyl)-1H-benzo[d]imidazole-7-carboxylic acid] |
| 3.83 | 4.67 | COCCn1c(Cc2cc(F)c(-c3cccc(OCc4ccc(C#N)cc4F)n3)cc2F)nc2ccc(C(=O)O)nc21 [Example 208, 2-(4-(6-((4-cyano-2-fluorobenzyl)oxy)pyridin-2-yl)-2,5-difluorobenzyl)-3-(2-methoxyethyl)-3H-imidazo[4,5-b]pyridine-5-carboxylic acid] |
| 5 | 3.23 | N#Cc1ccc(COc2cccc(-c3cc(F)c(Cc4nc5cc(F)c(C(=O)O)cc5n4CC4(CF)CC4)cc3F)n2)c(F)c1 [Example 205, 2-(4-(6-((4-cyano-2-fluorobenzyl)oxy)pyridin-2-yl)-2,5-difluorobenzyl)-5-fluoro-1-((1-(fluoromethyl)cyclopropyl)methyl)-1H-benzo[d]imidazole-6-carboxylic acid] |
| 3.5 | 0.86 | N#Cc1ccc(COc2cccc(-c3ccc(Cc4nc5cc(F)c(C(=O)O)cc5n4C[C@@H]4CCO4)c(F)c3)n2)c(F)c1 [Example 206] |
